Results: PubChem BioAssay (NCI)
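Test compounds were applied to cells in 96-well plates for 48 hours at 5 doses. Here, GI50 denotes the concentration required for 50% inhibition of growth. At the TGI there is no net growth.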

Key:
Assay in all cases: NCI tumour cell line growth inhibition, 48 h
MDA-MB-231 breast = test system: MDA-MB-231 breast
SR leukemia = test system: SR leukemia
NCI-H522 lung = test system: NCI-H522 lung
HS 578T breast = test system: HS 578T breast
DMS 273 small cell lung = test system: DMS 273 small cell lung
DMS 114 small cell lung = test system: DMS 114 small cell lung
HOP-18 NSCLC = test system: HOP-18 NSCLC
A498 renal = test system: A498 renal
P388 leukemia = test system: P388 leukemia
KM20L2 colon = test system: KM20L2 colon
HOP-62 NSCLC = test system: HOP-62 NSCLC
P388/ADR leukemia = test system: P388/ADR leukemia
XF 498 CNS = test system: XF 498 CNS
SN12K1 renal = test system: SN12K1 renal
RXF-631 renal = test system: RXF-631 renal
LXFL 529 NSCLC = test system: LXFL 529 NSCLC

SMILES: NC(CCP(=O)(O)CCC1C=CC=CC1)C(=O)O (stereo not given)
- TGI (MDA-MB-231 breast): > 100 µM
- TGI (SR leukemia): > 100 µM
- TGI (NCI-H522 lung): 55.4 µM
- TGI (HS 578T breast): > 100 µM

SMILES: O=C(O)C1Cc2c([nH]c3ccccc23)C=N1 (stereo not given)
- TGI (DMS 273 small cell lung): > 100 µM
- TGI (DMS 114 small cell lung): > 100 µM
- TGI (HOP-18 NSCLC): > 100 µM
- TGI (NCI-H522 lung): > 100 µM
- TGI (A498 renal): > 100 µM
- TGI (P388 leukemia): > 100 µM
- TGI (KM20L2 colon): > 100 µM
- TGI (HOP-62 NSCLC): > 100 µM
- TGI (P388/ADR leukemia): > 100 µM
- TGI (XF 498 CNS): > 100 µM

SMILES: CC12CCC(C(=O)N3CC=CCC3)(OC1=O)C2(C)C (stereo not given)
- TGI (DMS 273 small cell lung): > 100 µM
- TGI (DMS 114 small cell lung): > 100 µM
- TGI (HOP-18 NSCLC): > 100 µM
- TGI (NCI-H522 lung): > 100 µM
- TGI (A498 renal): > 100 µM
- TGI (SN12K1 renal): > 100 µM
- TGI (P388 leukemia): > 100 µM
- TGI (KM20L2 colon): > 100 µM
- TGI (HOP-62 NSCLC): > 100 µM
- TGI (P388/ADR leukemia): > 100 µM
- TGI (XF 498 CNS): > 100 µM

SMILES: COc1cc(C2=C(C#N)C(N)OC3=C2COc2ccccc23)cc(OC)c1OC (stereo not given)
- TGI (MDA-MB-231 breast): 43.8 µM
- TGI (SR leukemia): > 100 µM
- TGI (A498 renal): 56.3 µM
- TGI (HOP-62 NSCLC): 20.2 µM

SMILES: Nc1ccc2c3c(n(CCCCl)c(=O)c2c1)-c1cc2c(cc1C3=O)OCO2
- GI50 (MDA-MB-231 breast): 60.1 µM
- TGI (MDA-MB-231 breast): > 100 µM
- GI50 (SR leukemia): 0.0268 µM
- TGI (SR leukemia): > 100 µM

SMILES: CCC(=O)NC(Nc1ccc(O)cc1)(C(F)(F)F)C(F)(F)F
- TGI (MDA-MB-231 breast): > 100 µM
- TGI (SR leukemia): > 100 µM
- TGI (NCI-H522 lung): 66.6 µM
- TGI (A498 renal): > 100 µM
- TGI (HOP-62 NSCLC): > 100 µM
- TGI (HS 578T breast): > 100 µM

SMILES: COC(=O)c1ccc(N=NN(C)COc2ccc([N+](=O)[O-])cc2)cc1
- TGI (DMS 273 small cell lung): > 100 µM
- TGI (DMS 114 small cell lung): > 100 µM
- TGI (NCI-H522 lung): > 100 µM
- TGI (A498 renal): > 100 µM
- TGI (SN12K1 renal): > 100 µM
- TGI (P388 leukemia): > 100 µM
- TGI (KM20L2 colon): > 100 µM
- TGI (HOP-62 NSCLC): > 100 µM
- TGI (P388/ADR leukemia): > 100 µM
- TGI (XF 498 CNS): > 100 µM

SMILES: N=C(N)c1csc([C@@H]2O[C@H](CO)[C@@H](O)[C@H]2O)n1
- TGI (RXF-631 renal): > 100 µM
- TGI (DMS 273 small cell lung): > 100 µM
- TGI (SR leukemia): > 100 µM
- TGI (HOP-18 NSCLC): > 100 µM
- TGI (LXFL 529 NSCLC): > 100 µM
- TGI (XF 498 CNS): > 100 µM
